Assay results taken from patent US10023570B2 (Array BioPharma, Inc., priority 2015, dated 2018).
Structures can show the parent of a compound that is named as a salt. Where two headings read alike, the source gives them in different places.

Key:
[1] = target: human KDR protein in HEK-293 cells (Homo sapiens (Human), UniProt P35968); assay: KDR Cell Assay (phospho-KDR in HEK-293 cells expressing inducible KDR); assay type: cell-based; details: pKDR Cell HEK 10% FBS IC50, HEK-293 cells expressing inducible KDR, VEGF stimulated
In short: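 HEK-293 cells with inducible human KDR were treated with compound for 1 h in DMEM (0.25% DMSO final), then lysed. Phospho-KDR was quantified by Meso Scale immunoassay, expressed as percent of control, and IC50 taken where a 4-parameter logistic fit crossed 50 POC.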

[2] = target: Kif5b-RET fusion protein in HEK-293 cells (Homo sapiens, UniProt P07949); assay: cell-based
[3] = target: N-terminal GST tagged recombinant human RET cytoplasmic domain (aa 658-end), wild type RET kinase (Homo sapiens (Human), UniProt P07949); assay: RET Enzyme Assay (HTRF KinEASE-TK), wild type RET; assay type: biochemical
[4] = HEK-293 cells expressing Kif5b-RET, phospho-RET(Tyr1062), read-out: KIF5B-RET pTYR1062 Cell IC50
[5] = HEK-293 cells expressing Kif5b-RET, read-out: KIF5B-RET pTYR1062 Cell IC50
[6] = read-out: KIF5B-RET pTYR1062 Cell IC50

Kif5b-RET fusion protein in HEK-293 cells, sequence (P07949 29-1114 limits assumed): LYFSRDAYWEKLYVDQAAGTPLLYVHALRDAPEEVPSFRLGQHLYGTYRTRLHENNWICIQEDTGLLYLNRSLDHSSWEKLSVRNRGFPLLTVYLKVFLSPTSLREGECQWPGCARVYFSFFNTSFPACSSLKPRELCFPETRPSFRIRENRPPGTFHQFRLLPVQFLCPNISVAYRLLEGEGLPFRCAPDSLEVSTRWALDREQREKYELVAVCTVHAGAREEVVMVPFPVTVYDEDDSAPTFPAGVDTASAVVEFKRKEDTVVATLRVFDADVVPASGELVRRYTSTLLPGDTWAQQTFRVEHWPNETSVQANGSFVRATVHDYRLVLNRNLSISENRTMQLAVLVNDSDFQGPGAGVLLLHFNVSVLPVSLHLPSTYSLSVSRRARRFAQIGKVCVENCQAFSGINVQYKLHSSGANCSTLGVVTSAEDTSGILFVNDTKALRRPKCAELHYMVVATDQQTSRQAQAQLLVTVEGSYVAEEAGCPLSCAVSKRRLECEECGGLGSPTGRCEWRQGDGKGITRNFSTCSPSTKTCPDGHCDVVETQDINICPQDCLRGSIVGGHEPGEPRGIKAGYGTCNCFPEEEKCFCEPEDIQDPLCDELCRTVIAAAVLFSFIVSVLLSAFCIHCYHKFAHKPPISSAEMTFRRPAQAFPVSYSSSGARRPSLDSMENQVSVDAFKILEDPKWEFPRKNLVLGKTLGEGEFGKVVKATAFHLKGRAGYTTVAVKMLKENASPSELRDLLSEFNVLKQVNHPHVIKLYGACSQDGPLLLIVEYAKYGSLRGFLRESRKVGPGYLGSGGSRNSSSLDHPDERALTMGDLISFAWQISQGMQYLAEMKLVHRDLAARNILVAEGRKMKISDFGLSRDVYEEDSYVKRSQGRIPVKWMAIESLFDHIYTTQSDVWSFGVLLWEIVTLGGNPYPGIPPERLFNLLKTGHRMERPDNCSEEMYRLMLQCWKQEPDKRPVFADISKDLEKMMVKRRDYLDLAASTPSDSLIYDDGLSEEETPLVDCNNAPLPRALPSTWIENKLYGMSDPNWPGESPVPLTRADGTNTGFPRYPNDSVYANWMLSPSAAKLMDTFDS
N-terminal GST tagged recombinant human RET cytoplasmic domain (aa 658-end), wild type RET kinase, sequence (P07949 658-1114): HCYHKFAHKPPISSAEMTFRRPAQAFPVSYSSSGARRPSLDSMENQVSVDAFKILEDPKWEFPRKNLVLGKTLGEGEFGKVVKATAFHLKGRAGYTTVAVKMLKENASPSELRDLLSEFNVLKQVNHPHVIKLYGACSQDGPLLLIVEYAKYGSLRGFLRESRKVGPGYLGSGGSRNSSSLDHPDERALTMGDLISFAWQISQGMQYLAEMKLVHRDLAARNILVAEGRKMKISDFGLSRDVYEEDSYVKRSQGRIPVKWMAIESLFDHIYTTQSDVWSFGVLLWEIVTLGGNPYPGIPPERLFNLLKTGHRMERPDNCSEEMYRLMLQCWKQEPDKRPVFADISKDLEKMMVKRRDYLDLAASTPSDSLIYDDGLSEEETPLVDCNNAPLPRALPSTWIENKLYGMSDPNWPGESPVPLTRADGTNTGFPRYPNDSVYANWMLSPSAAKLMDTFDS
human KDR protein in HEK-293 cells, sequence (P35968 20-1356): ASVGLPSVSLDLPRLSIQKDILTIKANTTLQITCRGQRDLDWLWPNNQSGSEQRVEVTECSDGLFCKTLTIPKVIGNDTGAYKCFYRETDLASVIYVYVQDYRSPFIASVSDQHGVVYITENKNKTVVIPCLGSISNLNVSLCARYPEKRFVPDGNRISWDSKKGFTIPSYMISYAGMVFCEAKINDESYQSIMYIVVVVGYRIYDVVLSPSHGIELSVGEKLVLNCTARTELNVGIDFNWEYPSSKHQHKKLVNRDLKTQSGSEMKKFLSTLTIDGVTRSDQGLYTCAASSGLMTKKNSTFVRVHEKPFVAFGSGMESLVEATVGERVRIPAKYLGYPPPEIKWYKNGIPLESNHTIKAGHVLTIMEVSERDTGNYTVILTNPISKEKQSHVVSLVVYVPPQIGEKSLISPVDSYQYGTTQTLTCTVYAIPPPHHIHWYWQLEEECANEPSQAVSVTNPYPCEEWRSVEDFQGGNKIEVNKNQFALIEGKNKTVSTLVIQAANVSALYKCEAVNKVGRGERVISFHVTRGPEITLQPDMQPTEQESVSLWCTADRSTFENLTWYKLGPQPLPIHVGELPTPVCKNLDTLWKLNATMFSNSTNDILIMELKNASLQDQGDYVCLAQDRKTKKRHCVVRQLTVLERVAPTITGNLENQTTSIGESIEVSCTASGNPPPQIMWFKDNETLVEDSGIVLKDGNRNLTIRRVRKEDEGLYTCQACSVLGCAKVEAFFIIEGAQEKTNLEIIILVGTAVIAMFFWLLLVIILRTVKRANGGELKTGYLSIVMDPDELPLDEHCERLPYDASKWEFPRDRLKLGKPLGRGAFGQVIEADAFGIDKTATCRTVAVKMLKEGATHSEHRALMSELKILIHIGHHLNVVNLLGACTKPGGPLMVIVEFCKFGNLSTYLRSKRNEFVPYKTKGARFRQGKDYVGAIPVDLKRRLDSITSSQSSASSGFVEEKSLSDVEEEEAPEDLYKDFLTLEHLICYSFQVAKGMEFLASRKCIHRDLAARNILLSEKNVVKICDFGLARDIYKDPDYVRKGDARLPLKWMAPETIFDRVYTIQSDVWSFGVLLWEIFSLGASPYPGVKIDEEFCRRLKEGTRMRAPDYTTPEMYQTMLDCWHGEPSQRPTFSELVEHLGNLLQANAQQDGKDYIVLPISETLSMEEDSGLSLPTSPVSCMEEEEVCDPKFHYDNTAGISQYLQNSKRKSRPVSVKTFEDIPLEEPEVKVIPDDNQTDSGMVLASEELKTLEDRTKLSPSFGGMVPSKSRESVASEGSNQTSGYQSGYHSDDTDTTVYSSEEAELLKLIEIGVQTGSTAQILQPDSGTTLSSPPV

C[C@H](O)CC(=O)N1CCN(c2ccc(-c3cc(-c4cnn(C)c4)cn4ncc(C#N)c34)cn2)CC1 [Example 57, (S)-4-(6-(4-(3-hydroxybutanoyl)piperazin-1-yl)pyridin-3-yl)-6-(1-methyl-1H-pyrazol-4-yl)pyrazolo[1,5-a]pyridine-3-carbonitrile]
IC50 ([1]; 10% FBS): 1040 nM | IC50 [2, 4]: 48.6 nM | IC50 ([3]; wild type RET, 1 mM ATP): 12.7 nM

Cn1cc(-c2cc(-c3ccc(N4CCN(CC(O)C(C)(C)C)CC4)nc3)c3c(C#N)cnn3c2)cn1 (stereo not drawn) [Example 148, 4-(6-(4-(2-hydroxy-3,3-dimethylbutyl)piperazin-1-yl)pyridin-3-yl)-6-(1-methyl-1H-pyrazol-4-yl)pyrazolo[1,5-a]pyridine-3-carbonitrile]
IC50 ([1]; 10% FBS): 1060 nM | IC50 [2, 4]: 46.7 nM | IC50 ([3]; wild type RET, 1 mM ATP): 19.8 nM

COCC(=O)NC1CCN(c2ccc(-c3cc(-c4cnn(C)c4)cn4ncc(C#N)c34)cn2)CC1 [Example 183, N-(1-(5-(3-cyano-6-(1-methyl-1H-pyrazol-4-yl)pyrazolo[1,5-a]pyridin-4-yl)pyridin-2-yl)piperidin-4-yl)-2-methoxyacetamide]
IC50 ([1]; 10% FBS): 444 nM | IC50 [2, 4]: 15.8 nM | IC50 ([3]; wild type RET, 1 mM ATP): 11.9 nM

CC[C@H](CO)NC(=O)N1CCN(c2ccc(-c3cc(-c4cnn(C)c4)cn4ncc(C#N)c34)cn2)CC1 [Example 96, (R)-4-(5-(3-cyano-6-(1-methyl-1H-pyrazol-4-yl)pyrazolo[1,5-a]pyridin-4-yl)pyridin-2-yl)-N-(1-hydroxybutan-2-yl)piperazine-1-carboxamide]
IC50 ([1]; 10% FBS): 1560 nM | IC50 [2, 4]: 51.9 nM | IC50 ([3]; wild type RET, 1 mM ATP): 6.3 nM

CCn1cc(-c2cc(-c3ccc(N4CCN(Cc5ccccc5)CC4)nc3)c3c(C#N)cnn3c2)c(C)n1 [Example 609, 4-(6-(4-benzylpiperazin-1-yl)pyridin-3-yl)-6-(1-ethyl-3-methyl-1H-pyrazol-4-yl)pyrazolo[1,5-a]pyridine-3-carbonitrile]
IC50 [1]: 1980 nM | IC50 [2]: 31.5 nM | IC50 ([3]; wild type RET, 1 mM ATP): 16.5 nM

COC(CN1CCN(c2ccc(-c3cc(-c4cnn(C)c4)cn4ncc(C#N)c34)cn2)CC1)C(C)C (stereo not drawn) [Example 413, 4-(6-(4-(2-methoxy-3-methylbutyl)piperazin-1-yl)pyridin-3-yl)-6-(1-methyl-1H-pyrazol-4-yl)pyrazolo[1,5-a]pyridine-3-carbonitrile]
IC50 [1]: 549 nM | IC50 [2, 5]: 29.1 nM | IC50 ([3]; wild type RET, 1 mM ATP): 15.6 nM

Cn1cc(-c2cc(-c3ccc(N4CCN(CCOC(F)(F)F)CC4)nc3)c3c(C#N)cnn3c2)cn1 [Example 398, 6-(1-methyl-1H-pyrazol-4-yl)-4-(6-(4-(2-(trifluoromethoxy)ethyl)piperazin-1-yl)pyridin-3-yl)pyrazolo[1,5-a]pyridine-3-carbonitrile]
IC50 [1]: 1300 nM | IC50 [2, 5]: 18.6 nM | IC50 ([3]; wild type RET, 1 mM ATP): 11.1 nM

CC(C)CC(=O)N1CCN(c2ccc(-c3cc(-c4cnn(C)c4)cn4ncc(Cl)c34)cn2)CC1 [Example 646, 1-(4-(5-(3-chloro-6-(1-methyl-1H-pyrazol-4-yl)pyrazolo[1,5-a]pyridin-4-yl)pyridin-2-yl)piperazin-1-yl)-3-methylbutan-1-one]
IC50 [1]: 1960 nM | IC50 [2, 5]: 45.7 nM | IC50 ([3]; wild type RET, 1 mM ATP): 15.6 nM

CCCC(=O)N1CCN(c2ccc(-c3cc(-c4cnn(C)c4)cn4ncc(C#N)c34)cn2)CC1 [Example 70, 4-(6-(4-butyrylpiperazin-1-yl)pyridin-3-yl)-6-(1-methyl-1H-pyrazol-4-yl)pyrazolo[1,5-a]pyridine-3-carbonitrile]
IC50 ([1]; 10% FBS): 510 nM | IC50 [2, 4]: 18.5 nM | IC50 ([3]; wild type RET, 1 mM ATP): 8.4 nM

CN(C)C(=O)CN1CCN(c2ccc(-c3cc(-c4cnn(C)c4)cn4ncc(C#N)c34)cn2)CC1 [Example 143, 2-(4-(5-(3-cyano-6-(1-methyl-1H-pyrazol-4-yl)pyrazolo[1,5-a]pyridin-4-yl)pyridin-2-yl)piperazin-1-yl)-N,N-dimethylacetamide 2,2,2-trifluoroacetate]
IC50 ([1]; 10% FBS): 1800 nM | IC50 [2, 4]: 69.8 nM | IC50 [3]: 34.1 nM

COCCN(CCOC)C(=O)N1CCN(c2ccc(-c3cc(-c4cnn(C)c4)cn4ncc(C#N)c34)cn2)CC1 [Example 385, 4-(5-(3-cyano-6-(1-methyl-1H-pyrazol-4-yl)pyrazolo[1,5-a]pyridin-4-yl)pyridine-2-yl)-N,N-bis(2-methoxyethyl)piperazine-1-carboxamide]
IC50 [1]: 1970 nM | IC50 [2, 5]: 47.3 nM | IC50 ([3]; wild type RET, 1 mM ATP): 27.1 nM

Cn1cc(-c2cc(-c3ccc(N4CCC(O)(C(F)(F)F)CC4)nc3)c3c(C#N)cnn3c2)cn1 [Example 510, 4-(6-(4-hydroxy-4-(trifluoromethyl)piperidin-1-yl)pyridin-3-yl)-6-(1-methyl-1H-pyrazol-4-yl)pyrazolo[1,5-a]pyridine-3-carbonitrile 2,2,2-trifluoroacetate]
IC50 [1]: 323 nM | IC50 [2, 5]: 9.6 nM | IC50 [3]: 6.7 nM

CC(C)C[C@@H](O)C(=O)N1CCN(c2ccc(-c3cc(-c4cnn(C)c4)cn4ncc(C#N)c34)cn2)CC1 [Example 53, (R)-4-(6-(4-(2-hydroxy-4-methylpentanoyl)piperazin-1-yl)pyridin-3-yl)-6-(1-methyl-1H-pyrazol-4-yl)pyrazolo[1,5-a]pyridine-3-carbonitrile]
IC50 ([1]; 10% FBS): 305 nM | IC50 [2, 4]: 9.9 nM | IC50 ([3]; wild type RET, 1 mM ATP): 4.4 nM

Cn1cc(-c2cc(-c3ccc(N4CCC(NC(=O)OC(C)(C)C)CC4)nc3)c3c(C#N)cnn3c2)cn1 [Example 176, tert-butyl (1-(5-(3-cyano-6-(1-methyl-1H-pyrazol-4-yl)pyrazolo[1,5-a]pyridin-4-yl)pyridin-2-yl)piperidin-4-yl)carbamate]
IC50 ([1]; 10% FBS): 928 nM | IC50 [2, 4]: 15.3 nM | IC50 ([3]; wild type RET, 1 mM ATP): 7.6 nM

CC(C)n1cc(-c2cc(-c3ccc(N4CCN(Cc5ccccc5)CC4)nc3)c3c(C#N)cnn3c2)cn1 [Example 611, 4-(6-(4-benzylpiperazin-1-yl)pyridin-3-yl)-6-(1-isopropyl-1H-pyrazol-4-yl)pyrazolo[1,5-a]pyridine-3-carbonitrile]
IC50 [1]: 298 nM | IC50 [2]: 2.5 nM | IC50 ([3]; wild type RET, 1 mM ATP): 11.9 nM

Cn1cc(-c2cc(-c3ccc(N4CCC(N)CC4)nc3)c3c(C#N)cnn3c2)cn1 [Example 177, 4-(6-(4-aminopiperidin-1-yl)pyridin-3-yl)-6-(1-methyl-1H-pyrazol-4-yl)pyrazolo[1,5-a]pyridine-3-carbonitrile dihydrochloride]
IC50 ([1]; 10% FBS): 1180 nM | IC50 [2, 6]: 69.9 nM | IC50 ([3]; wild type RET, 1 mM ATP): 47 nM

C[C@@H](NC(=O)C1(C)CCN(c2ccc(-c3cc(-c4cnn(C)c4)cn4ncc(C#N)c34)cn2)CC1)C(F)(F)F [Example 253, (R)-1-(5-(3-cyano-6-(1-methyl-1H-pyrazol-4-yl)pyrazolo[1,5-a]pyridin-4-yl)pyridin-2-yl)-4-methyl-N-(1,1,1-trifluoropropan-2-yl)piperidine-4-carboxamide]
IC50 ([1]; 10% FBS): 596 nM | IC50 [2, 4]: 8.4 nM | IC50 ([3]; wild type RET, 1 mM ATP): 16.1 nM

CC(C)CC(=O)N1CCN(c2ccc(-c3cc(-c4cnn(C)c4)cn4ncc(C#N)c34)cn2)CC1 [Example 75, 6-(1-methyl-1H-pyrazol-4-yl)-4-(6-(4-(3-methylbutanoyl)piperazin-1-yl)pyridin-3-yl)pyrazolo[1,5-a]pyridine-3-carbonitrile]
IC50 ([1]; 10% FBS): 392 nM | IC50 [2, 4]: 7 nM | IC50 ([3]; wild type RET, 1 mM ATP): 6.3 nM

CONC(=O)C1CCN(c2ccc(-c3cc(-c4cnn(C)c4)cn4ncc(C#N)c34)cn2)CC1 [Example 564, 1-(5-(3-cyano-6-(1-methyl-1H-pyrazol-4-yl)pyrazolo[1,5-a]pyridin-4-yl)pyridin-2-yl)-N-methoxypiperidine-4-carboxamide]
IC50 [1]: 740 nM | IC50 [2, 5]: 26.2 nM | IC50 ([3]; wild type RET, 1 mM ATP): 6.4 nM

Cn1cc(-c2cc(-c3ccc(N4CCN(S(C)(=O)=O)CC4)nc3)c3c(Cl)cnn3c2)cn1 [Example 332, 3-chloro-6-(1-methyl-1H-pyrazol-4-yl)-4-(6-(4-(methylsulfonyl)piperazin-1-yl)pyridin-3-yl)pyrazolo[1,5-a]pyridine]
IC50 ([1]; 10% FBS): 207 nM | IC50 [2, 4]: 47 nM | IC50 ([3]; wild type RET, 1 mM ATP): 16.2 nM

Cn1cc(-c2cc(-c3ccc(N4CCC(C(=O)NCC(F)(F)F)CC4)nc3)c3c(C#N)cnn3c2)cn1 [Example 243, 1-(5-(3-cyano-6-(1-methyl-1H-pyrazol-4-yl)pyrazolo[1,5-a]pyridin-4-yl)pyridin-2-yl)-N-(2,2,2-trifluoroethyl)piperidine-4-carboxamide]
IC50 ([1]; 10% FBS): 103 nM | IC50 [2, 4]: 5.4 nM | IC50 ([3]; wild type RET, 1 mM ATP): 5.6 nM

CCONC(=O)C1CCN(c2ccc(-c3cc(-c4cnn(C)c4)cn4ncc(C#N)c34)cn2)CC1 [Example 237, 1-(5-(3-cyano-6-(1-methyl-1H-pyrazol-4-yl)pyrazolo[1,5-a]pyridin-4-yl)pyridin-2-yl)-N-ethoxypiperidine-4-carboxamide]
IC50 ([1]; 10% FBS): 840 nM | IC50 [2, 4]: 15.8 nM | IC50 ([3]; wild type RET, 1 mM ATP): 6.1 nM

CN(C)C(=O)CCN1CCN(c2ccc(-c3cc(-c4cnn(C)c4)cn4ncc(C#N)c34)cn2)CC1 [Example 146, 3-(4-(5-(3-cyano-6-(1-methyl-1H-pyrazol-4-yl)pyrazolo[1,5-a]pyridin-4-yl)pyridin-2-yl)piperazin-1-yl)-N,N-dimethylpropanamide 2,2,2-trifluoroacetate]
IC50 ([1]; 10% FBS): 736 nM | IC50 [2, 6]: 29 nM | IC50 ([3]; wild type RET, 1 mM ATP): 12.3 nM

COc1ccc(CN2CCN(c3ccc(-c4cc(-c5cnn(C[C@@H](C)O)c5)cn5ncc(C#N)c45)cn3)CC2)cn1 [Example 700, (R)-6-(1-(2-hydroxypropyl)-1H-pyrazol-4-yl)-4-(6-(4-((6-methoxypyridin-3-yl)methyl)piperazin-1-yl)pyridin-3-yl)pyrazolo[5-a]pyridine-3-carbonitrile]
IC50 [1]: 347 nM | IC50 [2, 5]: 5.3 nM | IC50 ([3]; wild type RET, 1 mM ATP): 16.8 nM
